≈ marks a conversion by molar mass, not a printed value. Bridge positions count the residues as written; N and C are the ends. Peptide text beside a SMILES is read from it.
Legend:
MRSA USA300 biofilms = assay: Anti-biofilm activity, 96-well biofilm model (crystal violet); type: cell-based, Staphylococcus aureus; settings: established MRSA USA300 biofilms; for reduction in biofilm formation: sub-MIC (0.25x and 0.5 x MIC) and MIC concentrations; for biofilm reduction: supra-MIC concentrations (2x and 4x MIC)
Method: The ability of HG2 and HG4 to disrupt established S. aureus biofilms was measured using a 96-well format as described by ref. [14]. MRSA USA300 cultures grown overnight in Brain Heart Infusion (BHI) broth was resuspended to OD600nm = 0.02 and grown without aeration at 37 °C in 96-well tissue culture plates for an additional 24 h. The planktonic cells were removed by three PBS (phosphate-buffered saline) washes. Thereafter, fresh BHI broth containing peptides HG2 or HG4 at sub- and supra-MIC concentrations (0.5, 1, 2 and 4x MIC) was added to wells containing adherent cells and incubated without shaking for another 24 h. Planktonic cells were again removed by three PBS washes. Biofilms were fixed with methanol for 20 min, stained with 0.4% (w/v) crystal violet solution for 20 min and re-solubilised with 33% (v/v) acetic acid. The optical density of re-solubilised biofilms was measured at 570 nm in a microplate spectrophotometer. The percentage biofilm reduction was calculated using the equation below: Percentagebiofilmreduction(%)=PositiveControl−ODofSample/PositiveControl−NegativeControl The plot showing anti-biofilm activity (% biofilm reduction) was generated using the ‘ggplot2’ package[53] in R (v 4.1.1)[54] with log-linear regression performed using lm() function.

K. pneumoniae 518842 = assay: microbe, parasite or virus in culture; type: cell-based, Klebsiella pneumoniae; settings: 518842
Method: (§1) To determine the antimicrobial activity of the new antimicrobial peptides, HG2 and HG4, their minimum inhibitory concentrations (MICs) were determined by broth microdilution method[51] in cation adjusted Mueller Hinton broth (MHB) following the International Organisation for Standardisation (ISO) 20776-1 standard for MIC testing using a final bacterial inoculum of 5 × 10^5 CFU/ml[52]. […] The peptides dissolved in sterile distilled water were added to bacteria culture and incubated overnight at appropriate conditions. The MICs of the peptides and comparator antibiotics were recorded after 18–24 h. The minimum bactericidal concentrations (MBCs) were also determined and were taken as the lowest concentration of the antimicrobial that prevented the growth of bacterial cells after the subculture of cells (from MIC treatment) onto antibiotic-free media.

K. pneumoniae 526903 = assay: microbe, parasite or virus in culture; type: cell-based, Klebsiella pneumoniae; settings: 526903
Method: as §1

K. pneumoniae NCTC 13442 = assay: microbe, parasite or virus in culture; type: cell-based, Klebsiella pneumoniae; settings: NCTC 13442
Method: as §1

[1] = tested on: K. pneumoniae ATCC 700603; assay: microbe, parasite or virus in culture; type: cell-based, Klebsiella pneumoniae; settings: ATCC 700603
Method: as §1

[2] = tested on: IMR-90 (normal fibroblasts); assay: Cytotoxicity, resazurin cell viability; type: cell-based, human; settings: 48 h
Method: (§2) The toxicity of HG2 and HG4 was tested by a well-known method[60] using the following cell types: BEAS-2B (normal airway epithelial cells, ATCC CRL-9609), IMR-90 (normal fibroblasts, ATCC CCL-186) and HepG2 (liver cell line, ATCC HB-8065). BEAS-2B, IMR-90 and HepG2 cells were cultured in Dulbecco’s modified essential medium (DMEM) supplemented with 10% fetal calf serum (FCS), 1% L-glutamine and 1% antibiotics (all from Invitrogen). Cells were routinely grown onto 25 cm^2 flasks maintained in a 5% CO2 incubator at 37 °C. Briefly, cells grown on 25 cm^2 flasks were detached using trypsin-EDTA solution (Thermofisher) and seeded into 96-well cell culture plates (Greiner Bio-one) at ~10^4 cells per well (counted using Mallasez’s chamber). The cells were grown at 37 °C in a 5% CO2 incubator until they reached confluence (~48–72 h of seeding). Wells were then aspirated and increasing concentrations of HG2 or HG4 were added to the cells and incubated for a further 48 h at 37 °C in a 5% CO2 incubator. The wells were then emptied, and cell viability was evaluated using a resazurin based in vitro toxicity assay kit (Sigma-Aldrich) following the manufacturer’s instructions. Briefly, the resazurin stock solution was diluted at 1:100 in sterile PBS containing calcium and magnesium (PBS^++, pH 7.4) and emptied wells were filled with 100 µl of the diluted resazurin solution. After 4 h incubation at 37 °C with the peptide-treated cells, fluorescence intensity was measured using a microplate reader (excitation wavelength of 530 nm/emission wavelength of 590 nm). The fluorescence values were normalised by the controls and expressed as the percentage of cell viability. The IC50 values of HG2 or HG4 on cell viability (i.e. the concentration of peptides causing a reduction of 50% of the cell viability) were calculated using GraphPad® Prism 7 software.

HepG2 (liver cell line) = assay: Cytotoxicity, resazurin cell viability; type: cell-based, human; settings: 48 h
Method: as §2

[3] = tested on: BEAS-2B (normal airway epithelial cells); assay: Cytotoxicity, resazurin cell viability; type: cell-based, human; settings: 48 h
Method: as §2

B. cereus = assay: microbe, parasite or virus in culture; type: cell-based, Bacillus cereus
Method: as §1

MRSA USA300 cells = assay: Transmission electron microscopy; type: cell-based, Staphylococcus aureus; settings: 3x MICs for 60 min
Description: Transmission electron microscopy[14] was used to investigate the effects of HG2 and HG4 on MRSA USA300 cell morphology. […] They were then stained with 2% (w/v) uranyl acetate and Reynold’s lead citrate after which they were observed using a JEM1010 transmission electron microscope (JEOL Ltd, Tokyo, Japan) at 80 kV.

[4] = tested on: MRSA USA300 cytoplasmic membrane; type: cell-based, Staphylococcus aureus; settings: for EC50 of membrane permeabilisation: USA300, 3 h
Method: Permeabilisation of the bacterial cytoplasmic membrane by HG2 and HG4 peptide was evaluated using the cell-impermeable DNA probe propidium iodide[14],[40]. Logarithmic-phase bacterial suspension of MRSA USA300 was prepared by diluting overnight cultures in fresh MHB (1 in 10 dilutions), incubated (3 h; 37 °C; 200 rpm), and pelleted by centrifugation (5 min; 3000×g). The bacterial cell pellet was then resuspended in sterile PBS at ~10^9 bacteria/ml. Propidium iodide (at 1 mg/ml, Sigma-Aldrich) was added to the bacterial suspension at a final concentration of 60 µM. This suspension (100 µl) was then transferred into black 96-well plates already containing 100 µl of serially diluted HG2 or HG4 peptide in PBS. Kinetics of fluorescence variations (excitation at 530 nm/emission at 590 nm) were then recorded using a microplate reader for a duration of 80 min with incubation at 37 °C. Cetyl trimethylammonium bromide (CTAB) (at 300 µM) served as positive control giving 100% permeabilisation. The permeabilisation effect of HG2 and HG4 were expressed as a percentage of total permeabilisation.

Row | SMILES | reduction in biofilm formation (MRSA USA300 biofilms) | biofilm reduction (MRSA USA300 biofilms) [%] | MIC (K. pneumoniae 518842) [µg/mL] | MIC (K. pneumoniae 526903) [µg/mL] | MIC (K. pneumoniae NCTC 13442) [µg/mL] | MIC [1] [µg/mL] | IC50 (cell viability) [2] [µg/mL] | IC50 (cell viability) (HepG2 (liver cell line)) [µg/mL] | IC50 (cell viability) [3] [µg/mL] | MIC (B. cereus) [µg/mL] | cell morphology by TEM (MRSA USA300 cells) | EC50 of membrane permeabilisation [4] [µg/mL] | permeabilisation at 1 min ([4]; at MIC concentration) [%]
1 | CC[C@H](C)[C@H](NC(=O)[C@H](CC(C)C)NC(=O)[C@H](CC(C)C)NC(=O)[C@H](CC(C)C)NC(=O)[C@H](CCCCN)NC(=O)[C@H](CCCCN)NC(=O)[C@@H](N)CCSC)C(=O)N[C@@H](CC(C)C)C(=O)N[C@@H](Cc1ccccc1)C(=O)N[C@H]1CSSC[C@@H](C(=O)N[C@@H](CCCCN)C(=O)N[C@@H](CCCCN)C(=O)N[C@@H](C)C(=O)N2CCC[C@H]2C(N)=O)NC(=O)CNC(=O)[C@H](C)NC(=O)[C@H](CC(C)C)NC(=O)[C@H](C)NC(=O)[C@H](CC(C)C)NC(=O)[C@H](C)NC(=O)[C@H](CC(C)C)NC1=O [HG2] (H-MKKLLLILFCLALALAGCKKAP-NH2; disulfide 10-18; N-terminus assumed) | less than 50% | ≥ 50 | 512 (≈ 217 µM) | >512 | 512 (≈ 217 µM) | >512 | 96 ± 21 (≈ 40.7 µM) | 359 ± 76 (≈ 152 µM) | 120 ± 25 (≈ 50.9 µM) | 256 (≈ 109 µM) | changes in cell morphology and some cytoplasmic damage | 1.351 ± 0.27 | 80
2 | CC[C@H](C)[C@H](NC(=O)[C@H](CC(C)C)NC(=O)[C@H](CC(C)C)NC(=O)[C@H](C)NC(=O)CNC(=O)CNC(=O)[C@@H](NC(=O)[C@@H](NC(=O)[C@H](CC(C)C)NC(=O)[C@H](C)NC(=O)[C@H](CC(C)C)NC(=O)CNC(=O)[C@H](CC(C)C)NC(=O)[C@@H](N)C(C)C)[C@@H](C)CC)C(C)C)C(=O)N[C@@H](CCCCN)C(=O)N[C@@H](CCCCN)C(=O)N[C@@H](CCCCN)C(=O)N[C@@H](CCC(N)=O)C(=O)N[C@@H](C)C(=O)N[C@@H](CCCCN)C(=O)N[C@@H](CO)C(N)=O [HG4] (H-VLGLALIVGGALLIKKKQAKS-NH2; N-terminus and C-terminus assumed) | less than 50% | ≥ 50 | 512 (≈ 242 µM) | 512 (≈ 242 µM) | 512 (≈ 242 µM) | >512 | 294 ± 42 (≈ 139 µM) | > 1000 | > 1000 | 512 (≈ 242 µM) | changes in cell morphology and some cytoplasmic damage | 13.85 ± 3.22 | –

From publication PMC9283466, “In silico identification of two peptides with antibacterial activity against multidrug-resistant Staphylococcus aureus” (NPJ Biofilms and Microbiomes, 2022)
